Reference: ChEMBL document CHEMBL1795227, “Methanesulfonamido-cyclohexylamine derivatives of 2,4-diaminopyrimidine as potent ALK inhibitors” (Bioorg Med Chem Lett, 2011)
Activity calls are given as the source filed them. The calls are words filed in the database; no cut-off is given here.

Experiments:
[1] = target: Fibroblast growth factor receptor 4 (Homo sapiens) (UniProt P22455); conditions: 1 uM
Description: Inhibition of FGFR4 at 1 uM

[2] = target: Tyrosine-protein kinase receptor UFO (Homo sapiens) (UniProt P30530); assay: Inhibition of AXL at 1 uM
Tyrosine-protein kinase receptor UFO (Homo sapiens), sequence (P30530 whole entry): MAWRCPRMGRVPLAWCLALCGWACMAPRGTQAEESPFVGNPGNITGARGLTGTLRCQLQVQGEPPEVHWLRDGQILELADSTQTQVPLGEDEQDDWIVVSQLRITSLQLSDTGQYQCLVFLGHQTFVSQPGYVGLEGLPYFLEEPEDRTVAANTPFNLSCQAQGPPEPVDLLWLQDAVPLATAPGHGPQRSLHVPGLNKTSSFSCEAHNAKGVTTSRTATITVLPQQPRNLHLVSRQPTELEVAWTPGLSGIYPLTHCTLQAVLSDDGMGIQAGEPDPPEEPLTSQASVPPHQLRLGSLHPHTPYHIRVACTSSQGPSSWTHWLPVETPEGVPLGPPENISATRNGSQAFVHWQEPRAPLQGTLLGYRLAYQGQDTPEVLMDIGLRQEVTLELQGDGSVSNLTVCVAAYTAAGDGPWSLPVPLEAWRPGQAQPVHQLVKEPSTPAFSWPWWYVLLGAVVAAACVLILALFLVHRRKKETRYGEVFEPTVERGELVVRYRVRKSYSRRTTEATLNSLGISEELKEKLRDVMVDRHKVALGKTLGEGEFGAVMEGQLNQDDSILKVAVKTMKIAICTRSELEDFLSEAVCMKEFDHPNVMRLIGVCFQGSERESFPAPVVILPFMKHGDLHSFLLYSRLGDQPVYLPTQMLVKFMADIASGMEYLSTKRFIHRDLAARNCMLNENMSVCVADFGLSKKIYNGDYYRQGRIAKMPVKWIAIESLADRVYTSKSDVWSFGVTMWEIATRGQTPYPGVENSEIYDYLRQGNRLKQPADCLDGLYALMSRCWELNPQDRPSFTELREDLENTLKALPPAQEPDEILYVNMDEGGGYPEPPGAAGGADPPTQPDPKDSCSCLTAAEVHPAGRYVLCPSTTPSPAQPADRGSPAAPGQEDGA

[3] = system: Serine/threonine-protein kinase B-raf (Homo sapiens), P15056 [V600E]; assay: Inhibition of BRAF V600E at 1 uM
Serine/threonine-protein kinase B-raf (Homo sapiens), P15056 [V600E], sequence (P15056 whole entry V600E): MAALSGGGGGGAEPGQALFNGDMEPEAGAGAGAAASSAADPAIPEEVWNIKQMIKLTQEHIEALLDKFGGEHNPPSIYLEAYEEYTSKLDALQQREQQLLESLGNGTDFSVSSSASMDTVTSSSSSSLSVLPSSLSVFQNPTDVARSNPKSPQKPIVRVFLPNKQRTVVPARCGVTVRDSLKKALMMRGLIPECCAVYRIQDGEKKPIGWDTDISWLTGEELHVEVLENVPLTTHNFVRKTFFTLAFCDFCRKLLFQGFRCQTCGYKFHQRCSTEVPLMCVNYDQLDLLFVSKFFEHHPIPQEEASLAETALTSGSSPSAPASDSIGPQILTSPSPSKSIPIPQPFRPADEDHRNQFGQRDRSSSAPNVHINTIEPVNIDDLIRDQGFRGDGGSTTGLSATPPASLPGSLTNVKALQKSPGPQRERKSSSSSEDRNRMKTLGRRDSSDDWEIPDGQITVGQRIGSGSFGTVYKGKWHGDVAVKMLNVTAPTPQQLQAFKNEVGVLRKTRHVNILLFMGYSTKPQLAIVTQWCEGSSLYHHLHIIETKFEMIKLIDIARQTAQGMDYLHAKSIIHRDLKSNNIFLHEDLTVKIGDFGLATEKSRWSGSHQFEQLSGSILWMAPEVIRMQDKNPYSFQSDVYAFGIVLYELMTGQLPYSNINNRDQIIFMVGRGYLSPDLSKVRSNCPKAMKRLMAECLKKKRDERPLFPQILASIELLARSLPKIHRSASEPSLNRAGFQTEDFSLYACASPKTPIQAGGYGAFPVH

[4] = target: Mitogen-activated protein kinase 11 (Homo sapiens) (UniProt Q15759); assay: Inhibition of p38 beta at 1 uM
Mitogen-activated protein kinase 11 (Homo sapiens), sequence (Q15759 whole entry): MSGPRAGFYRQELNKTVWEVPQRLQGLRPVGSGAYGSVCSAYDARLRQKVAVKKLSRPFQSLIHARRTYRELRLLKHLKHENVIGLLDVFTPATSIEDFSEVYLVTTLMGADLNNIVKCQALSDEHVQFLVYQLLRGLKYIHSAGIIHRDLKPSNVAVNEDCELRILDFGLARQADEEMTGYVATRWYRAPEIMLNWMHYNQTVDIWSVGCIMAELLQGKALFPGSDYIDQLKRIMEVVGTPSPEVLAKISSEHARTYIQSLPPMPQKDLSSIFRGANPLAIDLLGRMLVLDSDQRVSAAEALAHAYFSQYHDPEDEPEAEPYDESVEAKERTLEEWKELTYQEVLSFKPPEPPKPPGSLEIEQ

[5] = target: Tyrosine-protein kinase ABL1 (Homo sapiens) (UniProt P00519); assay: Inhibition of ABL1 at 1 uM
Tyrosine-protein kinase ABL1 (Homo sapiens), sequence (P00519 whole entry): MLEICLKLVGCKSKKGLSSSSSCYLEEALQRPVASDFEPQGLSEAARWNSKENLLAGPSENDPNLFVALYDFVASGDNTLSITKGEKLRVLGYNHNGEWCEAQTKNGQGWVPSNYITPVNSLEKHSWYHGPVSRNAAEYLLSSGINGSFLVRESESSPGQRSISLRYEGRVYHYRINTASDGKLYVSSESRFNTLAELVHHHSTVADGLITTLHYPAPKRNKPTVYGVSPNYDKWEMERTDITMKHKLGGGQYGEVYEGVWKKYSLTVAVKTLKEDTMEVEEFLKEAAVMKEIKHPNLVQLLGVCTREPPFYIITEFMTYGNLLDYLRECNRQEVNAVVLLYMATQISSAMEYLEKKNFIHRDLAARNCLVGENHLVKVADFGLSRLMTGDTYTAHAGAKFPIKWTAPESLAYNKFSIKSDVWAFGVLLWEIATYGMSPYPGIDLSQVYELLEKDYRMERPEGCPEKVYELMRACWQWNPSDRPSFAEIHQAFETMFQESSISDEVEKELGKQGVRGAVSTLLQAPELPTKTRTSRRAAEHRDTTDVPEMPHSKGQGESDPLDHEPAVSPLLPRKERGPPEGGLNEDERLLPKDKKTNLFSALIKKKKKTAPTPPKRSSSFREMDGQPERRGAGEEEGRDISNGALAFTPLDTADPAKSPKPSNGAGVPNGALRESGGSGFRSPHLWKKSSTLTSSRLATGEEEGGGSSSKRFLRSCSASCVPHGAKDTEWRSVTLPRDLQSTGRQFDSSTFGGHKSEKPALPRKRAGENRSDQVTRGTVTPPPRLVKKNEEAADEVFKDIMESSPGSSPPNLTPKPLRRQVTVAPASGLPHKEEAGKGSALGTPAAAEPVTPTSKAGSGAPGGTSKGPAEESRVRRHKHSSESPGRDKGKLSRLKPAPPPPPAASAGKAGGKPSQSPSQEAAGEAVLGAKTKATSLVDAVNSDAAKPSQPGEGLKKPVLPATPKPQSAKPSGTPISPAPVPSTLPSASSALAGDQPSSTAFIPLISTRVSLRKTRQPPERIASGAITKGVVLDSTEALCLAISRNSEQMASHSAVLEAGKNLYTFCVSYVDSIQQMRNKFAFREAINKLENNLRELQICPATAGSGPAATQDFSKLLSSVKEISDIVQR

[6] = target: Epidermal growth factor receptor (Homo sapiens) (UniProt P00533); assay: Inhibition of EGFR at 1 uM
Epidermal growth factor receptor (Homo sapiens), sequence (P00533 whole entry): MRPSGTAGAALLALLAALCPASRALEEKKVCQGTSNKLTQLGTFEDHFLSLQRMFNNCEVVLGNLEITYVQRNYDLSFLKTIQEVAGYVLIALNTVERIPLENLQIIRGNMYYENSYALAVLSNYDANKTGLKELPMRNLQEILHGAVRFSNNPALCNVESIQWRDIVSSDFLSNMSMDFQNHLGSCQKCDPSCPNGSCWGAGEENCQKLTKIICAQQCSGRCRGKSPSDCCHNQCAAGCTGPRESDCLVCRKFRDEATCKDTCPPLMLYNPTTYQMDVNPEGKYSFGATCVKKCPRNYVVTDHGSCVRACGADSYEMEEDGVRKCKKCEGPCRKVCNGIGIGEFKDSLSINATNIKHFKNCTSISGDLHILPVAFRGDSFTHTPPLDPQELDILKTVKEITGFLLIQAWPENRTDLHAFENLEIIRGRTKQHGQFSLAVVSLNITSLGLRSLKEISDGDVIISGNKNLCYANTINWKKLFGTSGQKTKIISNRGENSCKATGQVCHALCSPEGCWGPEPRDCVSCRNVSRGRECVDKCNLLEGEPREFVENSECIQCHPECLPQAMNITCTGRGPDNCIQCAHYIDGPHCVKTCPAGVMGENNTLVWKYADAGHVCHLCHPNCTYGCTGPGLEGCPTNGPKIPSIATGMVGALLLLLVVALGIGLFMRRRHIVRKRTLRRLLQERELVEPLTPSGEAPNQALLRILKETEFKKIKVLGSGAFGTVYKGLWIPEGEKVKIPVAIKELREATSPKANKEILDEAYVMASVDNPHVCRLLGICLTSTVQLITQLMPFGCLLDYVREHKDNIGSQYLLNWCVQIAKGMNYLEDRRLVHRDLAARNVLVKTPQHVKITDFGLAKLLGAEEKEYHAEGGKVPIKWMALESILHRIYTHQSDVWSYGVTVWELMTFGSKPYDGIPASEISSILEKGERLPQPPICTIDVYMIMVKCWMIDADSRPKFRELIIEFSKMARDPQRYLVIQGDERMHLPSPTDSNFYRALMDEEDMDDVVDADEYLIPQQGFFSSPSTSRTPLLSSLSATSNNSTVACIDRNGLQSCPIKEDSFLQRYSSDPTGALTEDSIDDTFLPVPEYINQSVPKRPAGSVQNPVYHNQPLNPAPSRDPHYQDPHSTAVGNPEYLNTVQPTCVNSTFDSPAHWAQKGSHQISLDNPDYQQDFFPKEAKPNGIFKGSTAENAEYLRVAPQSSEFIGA

[7] = target: Activin receptor type-1 (Homo sapiens) (UniProt Q04771); assay: Inhibition of ACVR1 at 1 uM
Activin receptor type-1 (Homo sapiens), sequence (Q04771 whole entry): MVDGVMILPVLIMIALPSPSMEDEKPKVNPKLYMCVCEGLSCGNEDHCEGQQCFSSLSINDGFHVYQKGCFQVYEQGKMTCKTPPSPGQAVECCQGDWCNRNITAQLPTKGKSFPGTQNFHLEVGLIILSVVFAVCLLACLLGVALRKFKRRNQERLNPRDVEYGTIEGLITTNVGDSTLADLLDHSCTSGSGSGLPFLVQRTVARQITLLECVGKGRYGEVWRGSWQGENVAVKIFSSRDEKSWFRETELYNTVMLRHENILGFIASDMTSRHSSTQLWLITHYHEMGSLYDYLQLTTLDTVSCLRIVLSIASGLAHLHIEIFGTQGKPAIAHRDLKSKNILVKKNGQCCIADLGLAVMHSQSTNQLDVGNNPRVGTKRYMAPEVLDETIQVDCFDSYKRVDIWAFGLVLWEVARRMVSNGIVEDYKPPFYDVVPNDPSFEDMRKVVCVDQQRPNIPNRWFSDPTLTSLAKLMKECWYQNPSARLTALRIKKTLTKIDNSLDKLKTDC

[8] = target: 3-phosphoinositide-dependent protein kinase 1 (Homo sapiens) (UniProt O15530); assay: Inhibition of PDPK1 at 1 uM
[9] = target: Aurora kinase A (Homo sapiens) (UniProt O14965); assay: Inhibition of AURKA at 1 uM
[10] = target: RAF proto-oncogene serine/threonine-protein kinase (Homo sapiens) (UniProt P04049); assay: Inhibition of RAF1 at 1 uM
[11] = target: ALK tyrosine kinase receptor (Homo sapiens, UniProt Q9UM73); assay: Inhibition of ALK
[12] = target: Serine/threonine-protein kinase B-raf (Homo sapiens) (UniProt P15056); assay: Inhibition of BRAF at 1 uM
Serine/threonine-protein kinase B-raf (Homo sapiens), sequence (P15056 whole entry): as the sequence (P15056 whole entry V600E) above, with E600V counted along it

[13] = target: Receptor tyrosine-protein kinase erbB-4 (Homo sapiens) (UniProt Q15303); assay: Inhibition of ERBB4 at 1 uM
[14] = target: Fibroblast growth factor receptor 3 (Homo sapiens) (UniProt P22607); conditions: 1 uM
Description: Inhibition of FGFR3 at 1 uM

[15] = target: Serine/threonine-protein kinase pim-2 (Homo sapiens) (UniProt Q9P1W9); assay: Inhibition of PIM2 at 1 uM
[16] = target: Angiopoietin-1 receptor (Homo sapiens) (UniProt Q02763); assay: Inhibition of Tie2 at 1 uM
Insulin receptor = Insulin receptor (Homo sapiens, UniProt P06213); assay: Inhibition of IR
[17] = system: Mast/stem cell growth factor receptor Kit (Homo sapiens), P10721 [D816V]; conditions: 1 uM
Description: Inhibition of KIT D816V at 1 uM

[18] = Half life in Sprague-Dawley rat at 1 mg/kg, iv; type: ADME, organism-based; design: dose 1 mg/kg, route intravenous; conditions: in vivo
[19] = Drug level in tumor of Karpas-299 cells xenografted mouse at 30 mg/kg, po administered as single dose measured after 2 hrs; type: ADME, organism-based, Neoplasm; design: dose 30 mg/kg, route oral; conditions: read-out: Drug uptake
[20] = Drug level in tumor of Karpas-299 cells xenografted mouse at 30 mg/kg, po administered as single dose measured after 6 hrs; type: ADME, organism-based, Neoplasm; design: dose 30 mg/kg, route oral; conditions: read-out: Drug uptake
[21] = Clearance in CD1 mouse at 1 mg/kg, iv; type: ADME, organism-based; design: dose 1 mg/kg, route intravenous; conditions: in vivo
Mus musculus [22] = assay: Inhibition of NPM-ALK autophosphorylation in Karpas-299 cells xenografted mouse at 30 mg/kg, po administered as single dose measured after 2 hrs; type: functional; conditions: KARPAS-299, 2 h
Mus musculus [23] = assay: Toxicity in mouse assessed as overt signs at 55 mg/kg, po bid; type: organism-based; design: dose 55 mg/kg, route oral; conditions: in vivo
[24] = Plasma concentration in Karpas-299 cells xenografted mouse at 30 mg/kg, po administered as single dose measured after 2 hrs; type: ADME, organism-based; design: dose 30 mg/kg, route oral
Mus musculus [25] = assay: Toxicity in mouse assessed as body weight loss at 30 mg/kg, po bid; type: organism-based; design: dose 30 mg/kg, route oral; conditions: in vivo
[26] = Half life in CD1 mouse at 10 mg/kg, po; type: ADME, organism-based; design: dose 10 mg/kg, route oral; conditions: in vivo
[27] = Cmax in Sprague-Dawley rat at 5 mg/kg, po; type: ADME, organism-based; design: dose 5 mg/kg, route oral; conditions: in vivo
[28] = Clearance in Sprague-Dawley rat at 1 mg/kg, iv; type: ADME, organism-based; design: dose 1 mg/kg, route intravenous; conditions: in vivo
[29] = Tmax in Sprague-Dawley rat at 5 mg/kg, po; type: ADME, organism-based; design: dose 5 mg/kg, route oral; conditions: in vivo
[30] = AUC (0 to t) in Sprague-Dawley rat at 1 mg/kg, iv; type: ADME, organism-based; design: dose 1 mg/kg, route intravenous; conditions: plasma
[31] = AUC (0 to t) in CD1 mouse at 1 mg/kg, iv; type: ADME, organism-based; design: dose 1 mg/kg, route intravenous; conditions: plasma
[32] = Volume of distribution in Sprague-Dawley rat at 1 mg/kg, iv; type: ADME, organism-based; design: dose 1 mg/kg, route intravenous; conditions: in vivo
KARPAS-299 [33] = assay: Antitumor activity against human KARPAS299 cells xenografted in mouse assessed as tumor growth inhibition at 55 mg/kg, po bid; type: functional; conditions: read-out: GI
[34] = Drug level in tumor of Karpas-299 cells xenografted mouse at 30 mg/kg, po administered as single dose measured after 12 hrs; type: ADME, organism-based, Neoplasm; design: dose 30 mg/kg, route oral; conditions: read-out: Drug uptake
[35] = Plasma concentration in Karpas-299 cells xenografted mouse at 30 mg/kg, po administered as single dose measured after 12 hrs; type: ADME, organism-based; design: dose 30 mg/kg, route oral
[36] = Tmax in CD1 mouse at 10 mg/kg, po; type: ADME, organism-based; design: dose 10 mg/kg, route oral; conditions: in vivo
[37] = AUC (0 to t) in Sprague-Dawley rat at 5 mg/kg, po; type: ADME, organism-based; design: dose 5 mg/kg, route oral; conditions: plasma
Mus musculus [38] = assay: Toxicity in mouse assessed as body weight loss at 55 mg/kg, po bid; type: organism-based; design: dose 55 mg/kg, route oral; conditions: in vivo
[39] = AUC (0 to t) in CD1 mouse at 10 mg/kg, po; type: ADME, organism-based; design: dose 10 mg/kg, route oral; conditions: plasma
Mus musculus [40] = assay: Toxicity in mouse assessed as overt signs at 30 mg/kg, po bid; type: organism-based; design: dose 30 mg/kg, route oral; conditions: in vivo
[41] = Plasma concentration in Karpas-299 cells xenografted mouse at 30 mg/kg, po administered as single dose measured after 6 hrs; type: ADME, organism-based; design: dose 30 mg/kg, route oral
[42] = Cmax in CD1 mouse at 10 mg/kg, po; type: ADME, organism-based; design: dose 10 mg/kg, route oral; conditions: in vivo
KARPAS-299 [43] = assay: Antitumor activity against human KARPAS299 cells xenografted in mouse assessed as tumor growth inhibition at 30 mg/kg, po bid; type: functional; conditions: read-out: GI
[44] = Oral bioavailability in Sprague-Dawley rat at 5 mg/kg; type: ADME, organism-based; conditions: in vivo
[45] = Half life in CD1 mouse at 1 mg/kg, iv; type: ADME, organism-based; design: dose 1 mg/kg, route intravenous; conditions: in vivo
[46] = Volume of distribution in CD1 mouse at 1 mg/kg, iv; type: ADME, organism-based; design: dose 1 mg/kg, route intravenous; conditions: in vivo
[47] = Oral bioavailability in CD1 mouse at 10 mg/kg; type: ADME, organism-based; conditions: in vivo
Mus musculus [48] = assay: Inhibition of NPM-ALK autophosphorylation in Karpas-299 cells xenografted mouse at 30 mg/kg, po administered as single dose measured after 6 hrs; type: functional, organism-based; design: dose 30 mg/kg

Compound `COCCN1CCc2cc(Nc3ncc(Cl)c(N[C@@H]4CCCC[C@H]4N(C)S(C)(=O)=O)n3)c(OC)cc2CC1` has an inhibition [1] of 100%, an inhibition [2] of under 65% and an inhibition [3] of under 65%. The inhibition [4] was under 65%, the inhibition [5] was under 65% and the inhibition [6] was 89%. It also gave an inhibition [7] of under 65%, an inhibition [8] of under 65% and an inhibition [9] of under 65%. For the same compound, the inhibition [10] was under 65%, the IC50 [11] was 3 nM and the inhibition [12] was under 65%. The inhibition [13] was 98%, the inhibition [14] was 100% and the inhibition [15] was under 65%. It also gave an inhibition [16] of under 65%, an IC50 (Insulin receptor) of 460 nM and an inhibition [17] of 100%.

`COCCN1CCc2cc(Nc3ncc(Cl)c(N[C@@H]4CCCC[C@H]4NS(C)(=O)=O)n3)c(OC)cc2CC1` showed an inhibition [1] of under 65%, a half-life [18] of 36 min and an inhibition [2] of under 65%. For the same compound, the inhibition [3] was under 65%, the concentration at 2 h [19] was 695 ng/g and the inhibition [4] was under 65%. The concentration at 6 h [20] was 602 ng/g, the clearance [21] was 5.6 mL/min/kg and the inhibition in vivo at 30 mg/kg (Mus musculus [22]) was 75%. For the same compound, the Activity (Mus musculus [23]) was “Non-toxic”, the concentration at 2 h [24] was 2740 ng/mL and the inhibition [5] was under 65%. The Activity (Mus musculus [25]) was “Non-toxic”, the half-life [26] was 60 min and the Cmax [27] was 23 ng/mL. The clearance [28] was 217 mL/min/kg, the Tmax [29] was 1.8 h and the AUC(0-t) [30] was 72 ng·h/mL. It also gave an inhibition [6] of under 65%, an inhibition [7] of under 65% and an AUC(0-t) [31] of 2930 ng·h/mL. For the same compound, the Vd [32] was 10.1 L/kg, the inhibition in vivo at 55 mg/kg (KARPAS-299 [33]) was 54% and the inhibition [8] was under 65%. It also gave a concentration at 12 h [34] of 279 ng/g, a concentration at 12 h [35] of 2650 ng/mL and an inhibition [9] of under 65%. The inhibition [10] was under 65%, the IC50 [11] was 6 nM and the inhibition [12] was under 65%. It also gave a Tmax [36] of 1 h, an inhibition [13] of 74% and an AUC(0-t) [37] of 110 ng·h/mL. For the same compound, the inhibition [14] was under 65%, the Activity (Mus musculus [38]) was “Non-toxic” and the AUC(0-t) [39] was 8200 ng·h/mL. For the same compound, the inhibition [15] was under 65%, the Activity (Mus musculus [40]) was “Non-toxic” and the concentration at 6 h [41] was 3680 ng/mL. The Cmax [42] was 2880 ng/mL, the inhibition [16] was under 65% and the IC50 (Insulin receptor) was 1400 nM. The inhibition in vivo at 30 mg/kg (KARPAS-299 [43]) was 45%, the bioavailability [44] was 24% and the half-life [45] was 54 min. For the same compound, the Vd [46] was 0.4 L/kg, the bioavailability [47] was 28% and the inhibition (Mus musculus [48]) was “inactive”. It also gave an inhibition [17] of 97%.
